Several values for one entry are separate records, joined by “and”; a condition that tells them apart may be missing. Equal values may be shown once.
Columns and labels:
[1] = Plasma protein binding assay (RED), human; assay type: in vitro ADME
Experimental: page 33: the need for further incubation. Following quenching, all plates were thoroughly mixed at 600 rpm for 10 minutes and centrifuged at 4000 rpm for 20 minutes. Supernatants were transferred to […] MS/MS analysis. Plasma stability was evaluated by determining the half-life through a least-squares fit of multiple time points based on first-order kinetics. Plasma protein binding assay: Test compound stock solutions were prepared at a concentration of 10 mM in DMSO. A Single-Use RED (Rapid Equilibrium Dialysis) device was acquired from Thermo Scientific (Cat. No: 99006, Rockford, IL). The sample preparation for plasma protein binding followed a modified version of Waters' method6. After thawing, plasma was centrifuged at 1000 rpm for 10 minutes to eliminate any particulates. Each compound was then prepared at a concentration of 10 µM in either human or mouse plasma. In the plasma protein binding assessment, 300 µL of spiked plasma solutions were introduced into the sample chamber (indicated by the red ring), while 550 µL of DPBS was added to the adjacent chamber. The plate was sealed and incubated at 37°C on an orbital shaker (100 rpm) for 4 hours. Post -incubation, 50 µL aliquots were withdrawn from each side of the insert and dispensed into a 96 -well storage plate. To create analytically identical sample matrices (matrix matching), an equivalent volume of blank plasma or DPBS was added to the necessary wells, followed by quenching w ith 3-fold (v:v) cold acetonitrile containing warfarin as the internal standard. Subsequently, the sealed plates were well -mixed at 600 rpm for 10 minutes and then centrifuged at 4000 rpm for 20 minutes. Supernatants were transferred to analytical […] Test compound concentrations were quantified in both the buffer and plasma chambers by determining peak areas relative to the internal standard. The percentage of the test compound bound to plasma was calculated using the following equation (4): %Free = (Concentration buffer chamber / concentration plasma chamber) x 100% and equation (5) %Bound = 100% - %Free.

[2] = Liver microsomes stability assay, human; assay type: in vitro ADME
Experimental: page 31: using a REMS Autosampler (World Precision Instruments, Sarasota, […]1 cells were grown for 5 days to reach a consistent confluency level monitored by epithelial voltohmmeter to confirm the intactness of the confluent polarized monolayer. For transport experiments, each cultured monolayer on the 96-well plate was washed twice with a transport buffer (HBSS/25 mM […] The cell-based permeability assay was initiated by the addition of each compound solution (10 μmol/L) into inserts (apical side, A) or receivers (basolateral side, B). After incubated […] (if basal to apical permeability), and concentrations were assessed by UPLC/MS (Waters; Milford, MA). All compounds were tested in triplicates. The A→B (or B→A) apparent permeability coefficients (Papp) of each compound were calculated using the equation (3): […], where dQ/dt equals the flux of a drug across the monolayer, the parameters of A equals the surface area of total insert well, and C0 is the initial concentration of substrate in the donor compartment. The efflux ratio was determined by dividing the Papp in the B-A direction by the Papp in the A-B direction. […] NADPH regenerating agent solutions A and B (Corning GentestTM, Cat. No: 451220) were purchased from Discovery Labware (Woburn, MA). Mouse liver microsomes (CD-1, pooled, GibcoTM, Cat. No: MSMCPL) were obtained from Thermo Fisher Scientific (Fredrick, MD). Pooled human liver microsomes (mixed gender, Cat. No: E0630) were purchased from XenoTech (Lenexa, KS). Stock solutions of test compounds were prepared at 10 mM in DMSO. Sample preparation for microsomal stability was modified from Di's publications3,4. […] and 4 hours) by Labcyte Echo 650 acoustic dispenser (Beckman Coulter Life Sciences, Indianapolis, IN). All compounds were tested in triplicate per time point. […] Plasma stability assay5: The degradation of human or mouse plasma was assessed by monitoring the gradual reduction of the parent compound over specified time intervals (0, 3, 24, and 48 hours). […]

[3] = human plasma, single replicates

SMILES | fraction unbound at 4 h, 10 µM ([1]; human, plasma) | half-life at 10 µM ([2]; both sexes, human, liver microsomes, pH 7.4, read-out: Microsome stability t1/2) | AVG %Bound ([1]; human plasma, average of 3 replicates) | %Bound [1, 3] | %Free [1, 3] | Ke [2] | t(1/2) [2]
O=C1CCC(N2Cc3cc(Nc4noc5ccccc45)ccc3C2=O)C(=O)N1 (stereo not shown) [SJ3149] | 0.023 | > 10 h | – | – | – | – | –
O=C1CCC(N2Cc3cc(Nc4noc5ccccc45)ccc3C2=O)C(=O)N1 (stereo not shown) [SJ001043149-1] | – | – | 97.7% | 97.5829% and 97.7158% and 97.77% | 2.417% and 2.284% and 2.23% | -0.00692 | -100.22

— PMC10791743, “Selective CK1α degraders exert antiproliferative activity against a broad range of human cancer cell lines” (Nature Communications, 2024)
